Reference: US20200354426A1 (MEDIMMUNE LIMITED, priority 2016, published 2020)
Read-outs that look alike come from different tables or passages of the source. Numbered stars: 1 amine (or outer) side, 2 acyl side, 3 side chain; on linkers, the order of the positions; unused ones are H or OH. Side chains are listed from the residue outwards. Peptide text beside a SMILES is read from it. * marks the point of attachment. γGlu = O=C(O)[C@H](CCC(=O)[*:2])N[*:1]; Palmitoyl = CCCCCCCCCCCCCCCC(=O)*; βAla = NCCC(=O)O

Experiments:
Experiment in all cases: cAMP activity assay in assay medium (assay 1)
Type in all cases: cell-based
Settings in all cases: Table 4
Human GIPr = target: T1, Human GIPr (Homo sapiens, UniProt P48546)
T1 construct: expressed in transfected cells
T1 sequence (P48546 22-466): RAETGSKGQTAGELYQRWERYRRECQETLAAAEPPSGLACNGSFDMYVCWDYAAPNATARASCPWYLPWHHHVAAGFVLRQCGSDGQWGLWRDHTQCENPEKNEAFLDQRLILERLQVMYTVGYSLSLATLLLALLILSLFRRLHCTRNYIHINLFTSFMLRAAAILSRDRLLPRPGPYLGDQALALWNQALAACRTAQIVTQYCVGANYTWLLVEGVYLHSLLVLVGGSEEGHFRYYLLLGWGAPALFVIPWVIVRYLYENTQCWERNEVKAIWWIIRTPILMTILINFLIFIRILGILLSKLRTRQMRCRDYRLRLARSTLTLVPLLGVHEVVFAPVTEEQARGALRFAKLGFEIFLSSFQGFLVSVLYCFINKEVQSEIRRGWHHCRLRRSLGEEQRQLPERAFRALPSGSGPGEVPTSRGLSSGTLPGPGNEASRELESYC
Text: (§1) Biological Activity of Peptides in Cell-Based cAMP Activity Assay (Assay 1):
(§2) All sample dilutions were made in duplicate.

Human GlucR = target: T2, Human GlucR (Homo sapiens, UniProt P47871)
T2 construct: expressed in transfected cells
T2 sequence (P47871 26-477): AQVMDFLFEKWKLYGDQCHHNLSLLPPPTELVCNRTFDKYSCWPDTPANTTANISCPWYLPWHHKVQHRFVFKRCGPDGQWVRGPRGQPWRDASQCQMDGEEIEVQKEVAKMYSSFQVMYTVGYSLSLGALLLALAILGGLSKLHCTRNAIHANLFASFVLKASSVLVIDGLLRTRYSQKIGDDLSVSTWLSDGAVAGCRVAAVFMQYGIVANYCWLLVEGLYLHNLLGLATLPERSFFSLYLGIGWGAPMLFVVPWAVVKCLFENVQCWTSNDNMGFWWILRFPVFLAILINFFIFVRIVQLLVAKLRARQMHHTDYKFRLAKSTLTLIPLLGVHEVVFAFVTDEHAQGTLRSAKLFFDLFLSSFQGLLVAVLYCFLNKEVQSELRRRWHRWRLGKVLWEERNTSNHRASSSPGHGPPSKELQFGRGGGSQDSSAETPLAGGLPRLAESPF
Text: as §1, §2

Human GLP1R = Human GLP1R (Homo sapiens, UniProt P43220); parameters: expressed in transfected cells
Chain of Human GLP1R (P43220 24-463): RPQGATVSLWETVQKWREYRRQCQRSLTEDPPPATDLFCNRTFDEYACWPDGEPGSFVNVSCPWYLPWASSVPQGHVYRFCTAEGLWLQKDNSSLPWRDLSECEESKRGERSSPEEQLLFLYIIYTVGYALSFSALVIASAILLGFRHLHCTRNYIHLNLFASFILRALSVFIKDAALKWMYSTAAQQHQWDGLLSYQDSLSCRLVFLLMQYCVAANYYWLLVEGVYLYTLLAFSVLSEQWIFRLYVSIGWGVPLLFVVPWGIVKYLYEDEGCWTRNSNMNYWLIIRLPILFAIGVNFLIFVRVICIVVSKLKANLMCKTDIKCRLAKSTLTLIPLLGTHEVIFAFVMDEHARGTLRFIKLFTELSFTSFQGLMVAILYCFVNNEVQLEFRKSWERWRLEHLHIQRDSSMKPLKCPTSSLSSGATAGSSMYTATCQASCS
Text: as §1, §2

[1] = assay medium, read-out: hGIPR EC50
[2] = assay medium, read-out: hGlucR EC50
[3] = assay medium, read-out: hGLP1R EC50

EC50 (Human GIPr; [1]) [nM] | EC50 (Human GlucR; [2]) [nM] | EC50 (Human GLP1R; [3]) [nM] | Structure (SMILES) | EC50 (Human GIPr; hGIPR EC50, assay medium) [nM] | EC50 (Human GlucR; hGlucR EC50, assay medium) [nM] | EC50 (Human GLP1R; hGLP1R EC50, assay medium) [nM]
29.4 | 0.0396 | 0.0232 | CCCCCCCCCCCCCCCC(=O)N[C@@H](CCC(=O)NCCCC[C@H](NC(=O)[C@H](Cc1ccc(O)cc1)NC(=O)[C@H](CCCCN)NC(=O)[C@H](CO)NC(=O)[C@H](Cc1ccc(O)cc1)NC(=O)[C@H](CC(=O)O)NC(=O)[C@H](CO)NC(=O)[C@@H](NC(=O)[C@H](Cc1ccccc1)NC(=O)[C@@H](NC(=O)CNC(=O)[C@H](CCC(N)=O)NC(=O)CNC(=O)[C@@H](N)Cc1c[nH]cn1)[C@@H](C)O)[C@@H](C)O)C(=O)N[C@@H](CC(=O)O)C(=O)N[C@@H](CO)C(=O)N[C@@H](CCC(=O)O)C(=O)N[C@@H](CCCNC(=N)N)C(=O)N[C@@H](C)C(=O)N[C@@H](CCCNC(=N)N)C(=O)N[C@@H](CC(=O)O)C(=O)N[C@@H](Cc1ccccc1)C(=O)N[C@H](C(=O)N[C@@H](C)C(=O)N[C@@H](Cc1c[nH]c2ccccc12)C(=O)N[C@@H](CC(C)C)C(=O)N[C@H](C(=O)N[C@@H](C)C(=O)NCC(=O)NCC(N)=O)C(C)C)C(C)C)C(=O)O [g732] (H-HGQGTFTSDYSKYK([γGlu-Palmitoyl])DSERARDFVAWLVAGG-NH2; N-terminus assumed) | – | – | –
– | – | – | CCCCCCCCCCCCCCCC(=O)N[C@@H](CCC(=O)NCCCC[C@H](NC(=O)[C@H](Cc1ccc(O)cc1)NC(=O)[C@H](CCCCN)NC(=O)[C@H](CO)NC(=O)[C@H](Cc1ccc(O)cc1)NC(=O)[C@H](CC(=O)O)NC(=O)[C@H](CO)NC(=O)[C@@H](NC(=O)[C@H](Cc1ccccc1)NC(=O)[C@@H](NC(=O)CNC(=O)[C@H](CCC(=O)O)NC(=O)CNC(=O)[C@@H](N)Cc1c[nH]cn1)[C@@H](C)O)[C@@H](C)O)C(=O)N[C@@H](CC(=O)O)C(=O)N[C@@H](CO)C(=O)N[C@@H](CCCNC(=N)N)C(=O)N[C@@H](CCCNC(=N)N)C(=O)N[C@@H](C)C(=O)N[C@@H](CCC(N)=O)C(=O)N[C@@H](CC(=O)O)C(=O)N[C@@H](Cc1ccccc1)C(=O)N[C@H](C(=O)N[C@@H](CCC(N)=O)C(=O)N[C@@H](Cc1c[nH]c2ccccc12)C(=O)N[C@@H](CC(C)C)C(=O)N[C@H](C(=O)N[C@@H](C)C(=O)NCC(=O)NCC(N)=O)C(C)C)C(C)C)C(=O)O [g733] (H-HGEGTFTSDYSKYK([γGlu-Palmitoyl])DSRRAQDFVQWLVAGG-NH2) | 817 | 62 | 0.0231
1170 | 82.8 | 0.0695 | CCCCCCCCCCCCCCCC(=O)NCCC(=O)NCCCC[C@H](NC(=O)[C@H](CO)NC(=O)[C@H](CC(=O)O)NC(=O)[C@H](CC(C)C)NC(=O)[C@H](Cc1ccc(O)cc1)NC(=O)[C@H](CCC(=O)O)NC(=O)[C@H](CO)NC(=O)[C@H](Cc1ccc(O)cc1)NC(=O)[C@H](CC(=O)O)NC(=O)[C@H](CO)NC(=O)[C@@H](NC(=O)[C@H](Cc1ccccc1)NC(=O)[C@@H](NC(=O)CNC(=O)[C@H](CCC(=O)O)NC(=O)[C@H](CO)NC(=O)[C@@H](N)Cc1c[nH]cn1)[C@@H](C)O)[C@@H](C)O)C(=O)N[C@@H](CCCNC(=N)N)C(=O)N[C@@H](C)C(=O)N[C@@H](CCCNC(=N)N)C(=O)N[C@@H](CC(=O)O)C(=O)N[C@@H](Cc1ccccc1)C(=O)N[C@H](C(=O)N[C@@H](C)C(=O)N[C@@H](Cc1c[nH]c2ccccc12)C(=O)N[C@@H](CC(C)C)C(=O)N[C@@H](CCC(=O)O)C(=O)N[C@@H](C)C(=O)NCC(=O)NCC(N)=O)C(C)C [g734] (H-HSEGTFTSDYSEYLDSK([βAla-Palmitoyl])RARDFVAWLEAGG-NH2; N-terminus assumed) | – | – | –
